Reference: publication PMC11472328, “Targeting Plasmodium falciparum IspD in the Methyl-D-erythritol Phosphate Pathway: Urea-Based Compounds with Nanomolar Potency on Target and Low-Micromolar Whole-Cell Activity” (Journal of Medicinal Chemistry, 2024)
In brackets after ≈: the same amount, converted by molar mass. Where two headings read alike, the source gives them in different places.

Key:
PK-LDH = experiment: Activity against auxiliary enzymes PK-LDH; format: biochemical
EcIspE = EcIspE (Escherichia coli, UniProt P62615); experiment: Activity against auxiliary enzyme EcIspE; format: biochemical
IspD = conditions: cited from earlier work
PfIspD [1] = target: T1, PfIspD (Plasmodium falciparum, UniProt Q8I273); experiment: Determination of enzyme kinetics, LC-MS based IspD assay; format: biochemical; conditions: our results, n = 2, mean ± SD; read-out: Km^CTP
T1 sequence (Q8I273 1-734): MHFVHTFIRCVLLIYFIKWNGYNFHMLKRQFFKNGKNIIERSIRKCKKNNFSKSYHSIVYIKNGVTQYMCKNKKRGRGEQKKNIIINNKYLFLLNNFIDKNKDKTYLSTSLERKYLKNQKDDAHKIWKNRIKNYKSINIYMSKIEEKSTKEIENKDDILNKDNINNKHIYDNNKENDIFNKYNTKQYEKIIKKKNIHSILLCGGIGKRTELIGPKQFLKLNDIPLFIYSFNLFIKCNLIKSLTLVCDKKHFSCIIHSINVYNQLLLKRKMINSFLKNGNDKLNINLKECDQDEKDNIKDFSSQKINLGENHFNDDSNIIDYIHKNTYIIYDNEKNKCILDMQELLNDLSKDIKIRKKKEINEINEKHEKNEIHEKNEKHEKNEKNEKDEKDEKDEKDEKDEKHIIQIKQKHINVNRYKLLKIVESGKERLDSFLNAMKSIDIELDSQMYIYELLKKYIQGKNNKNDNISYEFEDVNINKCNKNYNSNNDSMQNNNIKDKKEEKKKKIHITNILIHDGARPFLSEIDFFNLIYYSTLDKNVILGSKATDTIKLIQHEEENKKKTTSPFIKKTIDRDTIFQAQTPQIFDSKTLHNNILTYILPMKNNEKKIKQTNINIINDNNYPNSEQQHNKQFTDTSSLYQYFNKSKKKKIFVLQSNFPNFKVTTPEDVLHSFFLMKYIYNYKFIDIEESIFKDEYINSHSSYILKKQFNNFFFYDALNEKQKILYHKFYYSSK
Procedure: (§1) A volume of 80 μL Buffer A containing 100 mM Tris-HCl pH 7.6, 1 mM DTT, 1 mM MgCl2, 50 nM PfIspD were added to well A1 96-well plate while 50 μL were added to the rest of the wells. A volume of 20 μL of 10 mM CTP was added to the first well, then a serial dilution was conducted by moving 50 μL. To start the reaction, we then added on buffer A 50 μL of Buffer B containing 100 mM Tris-HCl pH 7.6, 1 mM DTT, and 1 mM MEP. The assay plate was incubated at 37 °C for 40 min, after which, the protein was denaturated by heating up the plate to 95 °C for 5 min. The plate was then centrifuged at 4000 rpm at 4 °C for 5 min to precipitate the protein. […] Thereafter, 10 μL of each of the supernatants from the assay plate were added to the plate containing the mixture with our internal standard. The plate was centrifuged again at 4000 rpm at 4 °C for 5 min, after which, 50 μL of the supernatant was transferred to an LC-MS plate and closed with a silicon cover. LC-MS conditions and data analysis methods we used were described above. The peak area for each conditions were used to calculate the Michaelis–Menten kinetic parameters using Graphpad Prism v 9. Measurements were performed in duplicates, repeated at least two times from two to three independent experiments.

E. coli K12 = experiment: Growth inhibition of E. coli K12; format: cell-based; conditions: Escherichia coli
[2] = test system: Mtb H37Rv mCherry 10 strain; experiment: MIC 90 against Mtb H37Rv mCherry 10 strain; format: cell-based; conditions: Mycobacterium tuberculosis, read-out: MIC 90 (growth inhibition) of Mtb H37Rv mCherry 10 strain
[3] = test system: Pf3D7 (WT) and MMV008138 resistant parasites (R2 and R3); experiment: IDP rescue assay; format: cell-based, Plasmodium falciparum; conditions: 200 μM IDP, 72 h
Procedure: The parasite growth was quantified by measuring DNA content using PicoGreen assay (Invitrogen). IC50 values were calculated by nonlinear regression analysis using GraphPad Prism software and reflect the mean ± standard error of the mean (SEM) from at least three independent experiments. Statistical comparison of the values was done via one-way ANOVA.

PfIspD [4] = target: T1, PfIspD; experiment: Photometric in vitro PfIspD assay; format: biochemical; conditions: mean ± SD, n ≥ 2; n.a. = absence of activity
Procedure: Dilution series (1:2) of inhibitors in DMSO covered the concentration range of approximately 200–0.01 μM. After finishing the dilution series, the final volume of compound solution in DMSO per well was 3 μL. For the IspD assay, 30 μL aliquots of a solution containing 100 mM Tris-HCl, pH 7.6, 0.02% NaN3, 1 mM MEP and 1 mM CTP were added to microplate wells preloaded with 3 μL of DMSO containing test compounds. […] Initial rates were estimated using Softmax Pro 6.1 software (Molecular Devices, Biberach an der Riss, Germany). IC50 values were determined with a nonlinear regression method using the program Dynafit.[21]

PfNF54 = experiment: Whole-cell assay, [3H]-hypoxanthine incorporation; format: cell-based, Plasmodium falciparum; conditions: mean ± SD, n.a. = absence of activity
Procedure: After incubation for 48 h, 0.25 μCi of [^3H]-hypoxanthine was added per well and plates were incubated for an additional 24 h.

malaria = test system: malaria; set-up: method as in Fernandes et al. [6]−[8]; conditions: children, combination therapy, meta-analysis ref Fernandes et al. [6]−[8]; cited from earlier work
[5] = substrate: C[C@](O)(CO)[C@H](O)COP(=O)(O)O; experiment: Determination of enzyme kinetics, LC-MS based IspD assay; format: biochemical, Plasmodium falciparum; conditions: other: our results, n = 2, mean ± SD; pH 7.6
Procedure: as §1

Sequence of EcIspE (P62615 whole entry): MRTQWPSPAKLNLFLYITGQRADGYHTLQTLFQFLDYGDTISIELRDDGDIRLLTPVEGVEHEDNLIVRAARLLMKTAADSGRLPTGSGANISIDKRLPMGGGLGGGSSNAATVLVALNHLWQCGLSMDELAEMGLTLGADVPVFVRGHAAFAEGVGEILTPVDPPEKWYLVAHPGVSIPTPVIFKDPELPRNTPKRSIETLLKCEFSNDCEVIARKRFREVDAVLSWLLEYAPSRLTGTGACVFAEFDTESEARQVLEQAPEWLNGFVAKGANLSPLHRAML

COC(=O)c1ccc(NC(=O)Nc2cccc(S(=O)(=O)N3CCCC3)c2)cc1 [Compound 7, Methyl 4-(3-(3-(Pyrrolidin-1-ylsulfonyl)phenyl)ureido)benzoate]
IC50 (PK-LDH): 242 ± 72 µM
IC50 (EcIspE): > 500 µM

Nc1ccn([C@@H]2O[C@H](COP(=O)(O)OP(=O)(O)OP(=O)(O)O)[C@@H](O)[C@H]2O)c(=O)n1 [CTP, cytidine triphosphate]
Km (IspD; ref Ghavami et al.[18], read-out: Km^CTP): 9 ± 3 µM
Km (IspD; ref Imlay et al.[12], read-out: Km^CTP): 59 ± 4 µM
Km (PfIspD [1]): 58 ± 9 µM

CS(=O)(=O)c1ccc(NC(=O)Nc2cccc(S(=O)(=O)N3CCCC3)c2)cc1 [Compound 9, 1-(4-(Methylsulfonyl)phenyl)-3-(3-(pyrrolidin-1-ylsulfonyl)phenyl)urea]
IC50 (PK-LDH): > 500 µM
IC50 (EcIspE): > 500 µM

O=C(Nc1ccc(Cl)cc1)Nc1cccc(S(=O)(=O)N2CCCC2)c1 [Compound 5, 1-(4-Chlorophenyl)-3-(3-(pyrrolidin-1-ylsulfonyl)phenyl)urea]
inhibition at 100 µM (E. coli K12): 45 ± 6%

O=C(Nc1ccc(C(F)(F)F)cc1)Nc1cccc(S(=O)(=O)N2CCCC2)c1 [Compound 11, 1-(3-(Pyrrolidin-1-ylsulfonyl)phenyl)-3-(4-(trifluoromethyl)phenyl)urea]
IC50 (PK-LDH): 73 ± 15 µM
IC50 (EcIspE; auxiliary enzyme, read-out: EcIspE (IC50 µM)): 73 ± 15 µM

C[C@](O)(CO)[C@H](O)COP(=O)(O)O [MEP, 2-C-methylerythritol-D-erythritol-4-phosphate]
Km (IspD; ref Ghavami et al.[18], read-out: Km^MEP): 12 ± 3 µM
Km (IspD; ref Wu et al.[14], read-out: Km^MEP): 61 µM

O=C(Nc1ccc([N+](=O)[O-])cc1)Nc1cccc(S(=O)(=O)N2CCCCC2)c1 [Compound 26, 1-(4-Nitrophenyl)-3-(3-(piperidin-1-ylsulfonyl)phenyl)urea]
IC50 (PK-LDH): > 500 µM
IC50 (EcIspE): 49 ± 7 µM

O=C(Nc1ccc([N+](=O)[O-])cc1)Nc1ccc(F)c(S(=O)(=O)N2CCOCC2)c1 [Compound 31, 1-(4-Fluoro-3-(morpholinosulfonyl)phenyl)-3-(4-nitrophenyl)urea]
IC50 (PK-LDH): > 500 µM
IC50 (EcIspE): 75 ± 11 µM

N#Cc1ccc(NC(=O)Nc2cccc(S(=O)(=O)N3CCCC3)c2)cc1 [Compound 10, 1-(4-Cyanophenyl)-3-(3-(pyrrolidin-1-ylsulfonyl)phenyl)urea]
MIC90 [2]: 64 µM (≈ 23.7 µg/mL)
inhibition at 100 µM (E. coli K12): 46 ± 4%
effect of IDP supplementation on sensitivity [3]: equalized the sensitivity of the resistant strains and the wild type

1-(4-Methyl-3-(morpholinosulfonyl)phenyl)-3-(4-nitrophenyl)urea [Compound 33]
IC50 (PfIspD [4]): > 10000 nM

Nc1ccc(NC(=O)Nc2cccc(S(=O)(=O)N3CCCC3)c2)cc1 [Compound 4, 1-(4-Aminophenyl)-3-(3-(pyrrolidin-1-ylsulfonyl)phenyl)urea]
PfNF54 (IC50 μM) (PfNF54): lacking whole-cell activity

O=C(Nc1ccc([N+](=O)[O-])cc1)Nc1cccc(S(=O)(=O)N2CCCC2)c1 [Compound 8, 1-(4-Nitrophenyl)-3-(3-(pyrrolidin-1-ylsulfonyl)phenyl)urea]
inhibition at 100 µM (E. coli K12): 14 ± 5%

O=C(Nc1ccc([N+](=O)[O-])cc1)Nc1cccc(S(=O)(=O)N2CCOCC2)c1 [Compound 27, 1-(3-(Morpholinosulfonyl)phenyl)-3-(4-nitrophenyl)urea]
IC50 (PK-LDH): 104 ± 19 µM
IC50 (EcIspE): > 500 µM

O=CN(O)CCCP(=O)(O)O [fosmidomycin]
cure rate (malaria): 85%

B1: PfIspD (Plasmodium falciparum 3D7) (protein)
chain: T1 sequence (Q8I273 1-734)
Km [5]: 46 ± 3 µM
